#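 Method: 48-hour compound exposure of cells in 96-well plates, five concentrations, linear interpolation of endpoints. GI50: concentration for 50% inhibition of growth.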 The source made the active and inactive calls. No stated cut-off is given here; in the data, active = GI50 up to about 1.1 µM and inactive = higher.
# Experiments:
# Experiment in all cases: NCI-60 cell line screen, 48 h
# A498 = test system: A498
# A549 = test system: A549
# BT-549 = test system: BT-549
# CCRF-CEM = test system: CCRF-CEM
# HCT-15 = test system: HCT-15
# HOP-62 = test system: HOP-62
# Hs-578T = test system: Hs-578T
# KM12 = test system: KM12
# MDA-N = test system: MDA-N
# OVCAR-4 = test system: OVCAR-4
# OVCAR-5 = test system: OVCAR-5
# RXF 393 = test system: RXF 393
# SF-539 = test system: SF-539
# SN12C = test system: SN12C
# SNB-19 = test system: SNB-19
# SNB-75 = test system: SNB-75
# TK-10 = test system: TK-10
# U-251 = test system: U-251
# UACC-62 = test system: UACC-62
# DLD-1 = test system: DLD-1
Compound,GI50 (A498),GI50 (A549),GI50 (BT-549),GI50 (CCRF-CEM),GI50 (HCT-15),GI50 (HOP-62),GI50 (Hs-578T),GI50 (KM12),GI50 (MDA-N),GI50 (OVCAR-4),GI50 (OVCAR-5),GI50 (RXF 393),GI50 (SF-539),GI50 (SN12C),GI50 (SNB-19),GI50 (SNB-75),GI50 (TK-10),GI50 (U-251),GI50 (UACC-62),GI50 (DLD-1)
O=c1c(C(c2ccc3c(c2)Cc2ccccc2-3)c2c(O)oc3ccccc3c2=O)c(O)oc2ccccc12,38.5 µM (inactive),19.5 µM (inactive),27.4 µM (inactive),40.4 µM (inactive),22.2 µM,32.5 µM (inactive),25.6 µM (inactive),22.3 µM (inactive),19.9 µM (inactive),31.8 µM (inactive),23.7 µM (inactive),18.2 µM (inactive),21.4 µM (inactive),20.4 µM (inactive),47.1 µM (inactive),20.7 µM (inactive),56.5 µM (inactive),23.9 µM (inactive),22.3 µM (inactive),
CCOC(=O)CCC(NC(=O)c1ccc(OCc2ccc3nc(-c4ccccc4)c(Cl)nc3c2)cc1)C(=O)OCC (stereo unspecified),36.1 µM (inactive),19.5 µM (inactive),22.3 µM (inactive),> 31.6 µM (inactive),> 31.6 µM,> 31.6 µM (inactive),14.9 µM (inactive),> 31.6 µM (inactive),> 100 µM (inactive),16.4 µM (inactive),> 31.6 µM (inactive),2.08 µM (inactive),15.8 µM (inactive),> 100 µM (inactive),17.3 µM (inactive),16.8 µM (inactive),16.4 µM (inactive),18.4 µM (inactive),> 31.6 µM (inactive),
O=C(O)c1ccc(C2C(=O)N[C@@H]3CCC[C@H]23)cc1 (stereo partly specified),> 100 µM (inactive),> 100 µM (inactive),,> 100 µM (inactive),> 100 µM,> 100 µM (inactive),,> 100 µM (inactive),,> 100 µM (inactive),> 100 µM (inactive),> 100 µM (inactive),> 100 µM (inactive),,> 100 µM (inactive),> 100 µM (inactive),> 100 µM (inactive),> 100 µM (inactive),> 100 µM (inactive),> 100 µM (inactive)
CCOC(=O)C1=C(C)NC(C)=C(C(=O)OCC)C1c1ccc(Cl)cc1,16.4 µM (inactive),15.4 µM (inactive),17.1 µM (inactive),1.43 µM (inactive),16.6 µM,14.8 µM (inactive),19.6 µM (inactive),17.5 µM (inactive),13.2 µM (inactive),12.5 µM (inactive),13.4 µM (inactive),14.1 µM (inactive),18.8 µM (inactive),19.4 µM (inactive),16.7 µM (inactive),18.7 µM (inactive),14.8 µM (inactive),16.8 µM (inactive),12.1 µM (inactive),
Oc1ccc2occ3c2c1CCC3,> 100 µM (inactive),> 100 µM (inactive),,> 100 µM (inactive),> 100 µM,> 100 µM (inactive),,,,> 100 µM (inactive),,75.2 µM (inactive),> 100 µM (inactive),> 100 µM (inactive),> 100 µM (inactive),> 100 µM (inactive),> 100 µM (inactive),> 100 µM (inactive),95.9 µM (inactive),> 100 µM (inactive)
Cc1nc(Nc2nc3ccccc3[nH]2)[nH]c(=O)c1CCO,> 100 µM (inactive),> 100 µM (inactive),> 100 µM (inactive),> 69 µM (inactive),61.9 µM,> 100 µM (inactive),20.6 µM (inactive),> 100 µM (inactive),> 92 µM (inactive),> 100 µM (inactive),> 86.9 µM (inactive),21.7 µM (inactive),39.9 µM (inactive),> 91.6 µM (inactive),> 100 µM (inactive),> 100 µM (inactive),39.4 µM (inactive),59.8 µM (inactive),68.9 µM (inactive),
COc1ccc(NC(=S)NNC(=O)c2cc(-c3ccccc3)nc3ccccc23)cc1,14.3 µM (inactive),17.7 µM (inactive),14.1 µM (inactive),12.9 µM (inactive),12.3 µM,15.1 µM (inactive),24 µM (inactive),16.1 µM (inactive),4.03 µM (inactive),19.3 µM (inactive),20.8 µM (inactive),13.9 µM (inactive),13.2 µM (inactive),18.6 µM (inactive),23.9 µM (inactive),16.1 µM (inactive),15.8 µM (inactive),15.5 µM (inactive),11.5 µM (inactive),
C(CCC[Te][Te]CCCCCCOC1CCCCO1)CCOC1CCCCO1 (stereo unspecified),17.6 µM (inactive),14.5 µM (inactive),,11 µM (inactive),19.2 µM,15.1 µM (inactive),,13.7 µM (inactive),,,14 µM (inactive),,17.3 µM (inactive),13.7 µM (inactive),14.4 µM (inactive),17.3 µM (inactive),30.1 µM (inactive),11.8 µM (inactive),10.6 µM (inactive),15.7 µM (inactive)

# Reference: ChEMBL document CHEMBL1201862, “PubChem BioAssay data set” (2004)
